From patent publication US12595230B2, “Substituted 6,7-dihydro-5H-benzo[7]annulene compounds and their derivatives, processes for their preparation and therapeutic uses thereof” (Sanofi, priority 2020, dated 2026) come the findings set out here.

This experiment concerns the target T1, ERα (Homo sapiens, UniProt P03372).
T1 construct: host or cells: MCF7
T1 sequence (P03372 1-595): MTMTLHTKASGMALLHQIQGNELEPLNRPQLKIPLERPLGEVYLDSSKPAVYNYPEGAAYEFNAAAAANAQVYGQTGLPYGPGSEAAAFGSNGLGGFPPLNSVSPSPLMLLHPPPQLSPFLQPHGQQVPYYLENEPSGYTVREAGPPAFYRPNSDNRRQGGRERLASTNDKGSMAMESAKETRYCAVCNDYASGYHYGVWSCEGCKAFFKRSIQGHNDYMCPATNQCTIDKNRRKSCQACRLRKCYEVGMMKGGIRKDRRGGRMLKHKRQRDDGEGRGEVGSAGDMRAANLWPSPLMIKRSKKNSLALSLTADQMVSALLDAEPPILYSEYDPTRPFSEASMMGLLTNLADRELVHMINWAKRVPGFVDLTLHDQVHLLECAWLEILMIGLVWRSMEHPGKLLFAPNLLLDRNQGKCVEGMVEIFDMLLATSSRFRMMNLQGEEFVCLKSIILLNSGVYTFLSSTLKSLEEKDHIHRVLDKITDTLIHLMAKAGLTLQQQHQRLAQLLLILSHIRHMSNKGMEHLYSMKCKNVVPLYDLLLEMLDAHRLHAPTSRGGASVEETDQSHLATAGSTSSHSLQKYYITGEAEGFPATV
In words: Estrogen receptor degradation activity: breast cancer cell ERα in cell western assay (MCF7 cells). It counts as cell-based. The conditions noted are these: for % Degradation At 0.3 μM: 4 hours, relative to fulvestrant 0.1 μM positive control; for DC50: 4 hours post compound addition, concentration which degrades 50% of the estrogen receptor, read-out: Degradation IC50. A digest of the protocol: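 Compounds were applied to MCF7 cells in stripped-serum, phenol red-free medium for 4 h at final 0.3–0.0000018 μM, with fulvestrant (0.1 μM) as control. Value: IC50 (nM) for 50% ERα degradation.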

For `Cc1cccc(C2=C(c3ccc(CC4CN(CCCF)C4)cc3)c3ccc(C(=O)O)cc3CCC2)c1C(F)(F)F.Cl` [Example 313, 9-(4-((1-(3-fluoropropyl)azetidin-3-yl)methyl)phenyl)-8-(3-methyl-2-(trifluoromethyl)phenyl)-6,7-dihydro-5H-benzo[7]annulene-3-carboxylic acid hydrochloride], the “% Degradation At 0.3 μM” value amounted to 90% and the DC50 was determined as 0.3 nM.
For `O=C(O)c1ccc2c(c1)SCC(c1ccc(F)cc1F)=C2c1ccc(CC2CN(CCCF)C2)cc1` [Example 314, 3-(2,4-difluorophenyl)-4-(4-((1-(3-fluoropropyl)azetidin-3-yl)methyl)phenyl)-2H-thiochromene-7-carboxylic acid] the same measures were 87% and 3 nM.
In the same order, the values of `O=C(O)c1ccc2c(c1)CCCC(c1cccc(CCO)c1)=C2c1ccc(CC2CN(CCCF)C2)cc1` [Example 319, 9-(4-((1-(3-fluoropropyl)azetidin-3-yl)methyl)phenyl)-8-(3-(2-hydroxyethyl)phenyl)-6,7-dihydro-5H-benzo[7]annulene-3-carboxylic acid] are 73% and 48 nM.
For `CC1CCc2cc(C(=O)O)ccc2C(c2ccc(CC3CN(CCCF)C3)cc2)=C1c1ccc(Cl)cc1Cl` (single isomer, unassigned) [Example 303, 8-(2,4-dichlorophenyl)-9-(4-((1-(3-fluoropropyl)azetidin-3-yl)methyl)phenyl)-7-methyl-6,7-dihydro-5H-benzo[7]annulene-3-carboxylic acid] the same measures were 90% and 0.4 nM.
On to `O=C(O)c1ccc2c(c1)CCCC(c1ccc(Cl)cc1Cl)=C2c1ccc(CC2CN(CCCF)C2)cc1` [Example 2, 8-(2,4-dichlorophenyl)-9-(4-((1-(3-fluoropropyl)azetidin-3-yl)methyl)phenyl)-6,7-dihydro-5H-benzo[7]annulene-3-carboxylic Acid], for which the “% Degradation At 0.3 μM” value is reported as 91% and the DC50 was found to be 0.3 nM.
Consider `COc1c(Cl)cccc1C1=C(c2ccc(CC3CN(CCCF)C3)cc2)c2ccc(C(=O)O)cc2CCC1` [Example 334, 8-(3-chloro-2-methoxyphenyl)-9-(4-((1-(3-fluoropropyl)azetidin-3-yl)methyl)phenyl)-6,7-dihydro-5H-benzo[7]annulene-3-carboxylic acid], for which the “% Degradation At 0.3 μM” value was found to be 91% and the DC50 amounted to 0.4 nM.
As to `Cl.O=C(O)c1ccc2c(c1)CCC(c1ccc(Cl)cc1Cl)=C2c1ccc(CC2CN(CCCF)C2)cc1` [Example 262, 6-(2,4-Dichlorophenyl)-5-(4-((1-(3-fluoropropyl)azetidin-3-yl)methyl)phenyl)-7,8-dihydronaphthalene-2-carboxylic Acid Hydrochloride], the “% Degradation At 0.3 μM” value is reported as 91% and the DC50 was 1.6 nM.
For `O=C(O)c1ccc2c(c1)CCCC(c1cc(F)cc(F)c1)=C2c1ccc(CC2CN(CCCF)C2)cc1` [Example 266, 8-(3,5-difluorophenyl)-9-(4-((1-(3-fluoropropyl)azetidin-3-yl)methyl)phenyl)-6,7-dihydro-5H-benzo[7]annulene-3-carboxylic acid], the “% Degradation At 0.3 μM” value came to 90% and the DC50 was determined as 0.3 nM.
For `CC(O)(c1ccc(C2=C(c3ccc(Cl)cc3Cl)CCCc3cc(C(=O)O)ccc32)cc1)C1CN(CCCF)C1.Cl` (single isomer, unassigned; isomer 1) [Example 235, 8-(2,4-dichlorophenyl)-9-(4-(1-(1-(3-fluoropropyl)azetidin-3-yl)-1-hydroxyethyl)phenyl)-6,7-dihydro-5H-benzo[7]annulene-3-carboxylic acid, Hydrochloride Isomer 1] the same measures were 62% and 4.5 nM.
For the compound `Cl.O=C(O)c1ccc2c(c1)CCCC(c1ccc(Cl)cc1Cl)=C2c1ccc(C2(C3CN(CCCF)C3)CC2)cc1` [Example 215, 8-(2,4-dichlorophenyl)-9-(4-(1-(1-(3-fluoropropyl)azetidin-3-yl)cyclopropyl)phenyl)-6,7-dihydro-5H-benzo[7]annulene-3-carboxylic acid hydrochloride], the “% Degradation At 0.3 μM” value was found to be 67% and the DC50 is 0.3 nM.
In the case of `Cc1cc(Cl)ccc1C1=C(c2ccc(CC3CN(CCCF)C3)cc2)c2ccc(C(=O)O)cc2OCC1` [Example 263, 4-(4-chloro-2-methylphenyl)-5-(4-((1-(3-fluoropropyl)azetidin-3-yl)methyl)phenyl)-2,3-dihydrobenzo[b]oxepine-8-carboxylic acid], the “% Degradation At 0.3 μM” value is 90% and the DC50 was 0.8 nM.
In the same order, the values of `CCC1CCc2cc(C(=O)O)ccc2C(c2ccc(CC3CN(CCCF)C3)cc2)=C1c1ccc(Cl)cc1` (single isomer, unassigned) [Example 329, 8-(4-chlorophenyl)-7-ethyl-9-(4-((1-(3-fluoropropyl)azetidin-3-yl)methyl)phenyl)-6,7-dihydro-5H-benzo[7]annulene-3-carboxylic acid] are 89% and 1.3 nM.
With `O=C(O)c1cc2c(cc1Cl)C(c1ccc(CC3CN(CCCF)C3)cc1)=C(c1ccc(Cl)cc1Cl)CCC2` [Example 248, 2-chloro-8-(2,4-dichlorophenyl)-9-(4-((1-(3-fluoropropyl)azetidin-3-yl)methyl)phenyl)-6,7-dihydro-5H-benzo[7]annulene-3-carboxylic acid], the “% Degradation At 0.3 μM” value is recorded as 90% and the DC50 was 2.2 nM.
For `Cc1ccc(C2=C(c3ccc(CC4CN(CCCF)C4)cc3)c3cc(F)c(O)c(F)c3CCC2)c(Cl)c1` [Example 265, 8-(2-chloro-4-methylphenyl)-2,4-difluoro-9-(4-((1-(3-fluoropropyl)azetidin-3-yl)methyl)phenyl)-6,7-dihydro-5H-benzo[7]annulen-3-ol] the same measures were 83% and 0.4 nM.
In the same order, the values of `Cl.O=C(O)c1ccc2c(c1)CCCC(c1cccc3c1CCC3(F)F)=C2c1ccc(CC2CN(CCCF)C2)cc1` [Example 54, 8-(1,1-difluoro-2,3-dihydro-1H-inden-4-yl)-9-(4-((1-(3-fluoropropyl)azetidin-3-yl)methyl)phenyl)-6,7-dihydro-5H-benzo[7]annulene-3-carboxylic acid hydrochloride] are 94% and 0.6 nM.
For `N#Cc1cc2c(cc1C(=O)O)CCCC(c1ccc(Cl)cc1Cl)=C2c1ccc(CC2CN(CCCF)C2)cc1` [Example 245, 2-cyano-8-(2,4-dichlorophenyl)-9-(4-((1-(3-fluoropropyl)azetidin-3-yl)methyl)phenyl)-6,7-dihydro-5H-benzo[7]annulene-3-carboxylic acid], the “% Degradation At 0.3 μM” value amounted to 100% and the DC50 is 269 nM.
In the same order, the values of `CC(C)C1CCc2cc(C(=O)O)ccc2C(c2ccc(CC3CN(CCCF)C3)cc2)=C1c1ccc(Cl)cc1Cl` (single isomer, unassigned) [Example 322, 8-(2,4-dichlorophenyl)-9-(4-((1-(3-fluoropropyl)azetidin-3-yl)methyl)phenyl)-7-isopropyl-6,7-dihydro-5H-benzo[7]annulene-3-carboxylic acid] are 87% and 0.6 nM.
